The values below come from patent US8569336B2, “Compounds for the treatment of inflammatory disorders” (priority 2008, dated 2013).

Each structure is given as a SMILES string. pIC50, pKi: −log10 of the molar value. Read-outs that look alike come from different tables or passages of the source.

Test [1] deals with TNF-α production from human whole blood. Briefly: Inhibition of TNF-α production from human whole blood (hWBA), LPS stimulated, ELISA. The class given is cell-based. The settings on record: Homo sapiens, TNF-α by ELISA, read-out: hWBA (IC50). (In general: An ELISA detects its analyte on a solid surface through an enzyme-linked reagent.)
Test [2] deals with T1, purified catalytic domain of recombinant human TACE (rhTACEc) (Homo sapiens, UniProt P78536, N452Q/S266A).
T1 construct: 6xHis (C); made in house; host or cells: baculovirus/Hi5 insect cells
T1 sequence (P78536 215-477 S266A/N452Q): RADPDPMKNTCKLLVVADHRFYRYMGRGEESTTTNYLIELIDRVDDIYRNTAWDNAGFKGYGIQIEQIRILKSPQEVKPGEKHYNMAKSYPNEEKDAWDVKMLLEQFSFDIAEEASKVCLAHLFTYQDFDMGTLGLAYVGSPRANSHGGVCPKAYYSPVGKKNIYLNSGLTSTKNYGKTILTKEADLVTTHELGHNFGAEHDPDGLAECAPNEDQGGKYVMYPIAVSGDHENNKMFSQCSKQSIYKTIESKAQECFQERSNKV
Briefly: TACE kinetic assay: cleavage of internally quenched peptide substrate TNF-FRET 2 (Ki). Format: biochemical. The settings on record: TNF-FRET 2 substrate.

[3] abbreviates: LPS-stimulated human whole blood.
[4] abbreviates: 3.5 h, human whole blood diluted 1:1, LPS stimulated, 3.5 h.

The term pIC50 denotes the negative decadic logarithm of the IC50, by convention in mol/L. By pKi is commonly meant the negative decadic logarithm of the Ki, by convention in mol/L. Take `COc1ccc2c(c1F)C(=O)N(C[C@@]1(c3cc4nc(C)c(Br)cc4o3)NC(=O)NC1=O)C2` [Compound 1917]: in test [1] (setting [3]), the pIC50 is 5.87. Moreover, the pKi in test [2] (read-out: Ki) is 9.30.
For the molecule `COc1ccc2c(c1OC)C(=O)N(C[C@@]1(c3cc4nc(C)c(Br)cc4o3)NC(=O)NC1=O)C2` [Compound 1918], in test [1] (setting [3]), the negative logarithm of the IC50 (pIC50) was 4.47. In test [2] (read-out: Ki), the negative logarithm of the Ki (pKi) was 8.61.
`CCN1CCN(c2cc3oc([C@]4(CN5Cc6ccc(OC)c(F)c6C5=O)NC(=O)NC4=O)cc3nc2C)CC1` [Compound 1920]: in test [1] (setting [3]), the pIC50 is 6.17. For the same molecule, the pKi in test [2] (read-out: Ki) is 8.67.
In the case of `COc1ccc2c(c1)C(=O)N(C[C@@]1(c3cc4nc(C(=O)NC5CC5)ccc4o3)NC(=O)NC1=O)C2` [Compound 1926], the negative-log IC50 (pIC50) in test [1] (setting [3]) is 6.44. For the same molecule, in test [2] (read-out: Ki), the pKi was 9.92.
`COc1ccc2c(c1)C(=O)N(C[C@@]1(c3cc4nc(C(=O)NCCN(C)C)ccc4o3)NC(=O)NC1=O)C2` [Compound 1927]: the pIC50 in test [1] (setting [3]) is 6.25. Besides, the pKi in test [2] (read-out: Ki) is 9.06.
For `COC(=O)c1cnc2cc([C@]3(CN4Cc5ccc(OC)cc5C4=O)NC(=O)NC3=O)oc2c1` [Compound 1928], in that order: 6.08 and 9.28.
Take `COc1ccc2c(c1)C(=O)N(C[C@@]1(c3cc4ncc(C(N)=O)cc4o3)NC(=O)NC1=O)C2` [Compound 1929]: the pIC50 in test [1] (setting [3]) was 6.76. For the same molecule, in test [2] (Ki), the pKi is 9.43.
In the case of `COc1ccc2c(c1)C(=O)N(C[C@@]1(c3cc4ncc(C(=O)NC5CC5)cc4o3)NC(=O)NC1=O)C2` [Compound 1931], in test [1] (setting [3]), the pIC50 was 6.49. In addition, the negative-log Ki (pKi) in test [2] (read-out: Ki) is 9.25.
For `COc1ccc2c(c1)C(=O)N(C[C@@]1(c3cc4nc(NS(C)(=O)=O)ccc4o3)NC(=O)NC1=O)C2` [Compound 1937], in that order: 6.72 and 8.66.
For `CCNC(=O)Nc1ccc2oc([C@]3(CN4Cc5ccc(OC)cc5C4=O)NC(=O)NC3=O)cc2n1` [Compound 1939], the pIC50 in test [1] (setting [3]) is 6.17. For the same molecule, the pKi in test [2] (read-out: Ki) is 8.95.
Turning to `COc1ccc2c(c1)C(=O)N(C[C@@]1(c3oc4cccnc4c3-c3ncccc3O)NC(=O)NC1=O)C2` [Compound 1940], the pIC50 in test [1] (setting [3]) was 6.18. Further, the pKi in test [2] (read-out: Ki) was 9.12.
Consider `COc1ccc2c(c1)C(=O)N(C[C@@]1(c3cc4ncc(CO)cc4o3)NC(=O)NC1=O)C2` [Compound 1941], for which, in test [1] (setting [3]), the pIC50 is 6.22. In test [2] (read-out: Ki), the negative logarithm of the Ki (pKi) was 9.23.
In the case of `COc1ccc2c(c1)C(=O)N(C[C@@]1(c3cc4ncc(C5=NCCN5)cc4o3)NC(=O)NC1=O)C2` [Compound 1942], the pIC50 in test [1] (setting [3]) is 5.41. The pKi in test [2] (Ki) was 8.68.
As to `COc1ccc2c(c1)C(=O)N(C[C@@]1(c3cc4ncc(-c5ncc[nH]5)cc4o3)NC(=O)NC1=O)C2` [Compound 1943], the pIC50 in test [1] (setting [3]) was 6.13. Besides, the pKi in test [2] (read-out: Ki) was 9.27.
For `CCNC(=O)OCc1cnc2cc([C@]3(CN4Cc5ccc(OC)cc5C4=O)NC(=O)NC3=O)oc2c1` [Compound 1944], in that order: 5.65 and 9.16.
Consider `COc1ccc2c(c1)C(=O)N(C[C@@]1(c3cc4nc(CO)ccc4o3)NC(=O)NC1=O)C2` [Compound 1945], for which the pIC50 in test [1] (setting [3]) was 6.14. Also, the pKi in test [2] (read-out: Ki) was 9.16.
Take `COc1ccc2c(c1)C(=O)N(C[C@@]1(c3cc4[nH]c(=O)ccc4o3)NC(=O)NC1=O)C2` [Compound 1946]: the pIC50 in test [1] (setting [3]) is 6.27. In addition, the negative logarithm of the Ki (pKi) in test [2] (read-out: Ki) is 9.43.
Take `COc1ccc2c(c1)C(=O)N(C[C@@]1(c3cc4nc(-c5c(C)n[nH]c5C)ccc4o3)NC(=O)NC1=O)C2` [Compound 2101]: the pIC50 in test [1] (setting [4]) is 6.69. Further, the negative logarithm of the Ki (pKi) in test [2] (read-out: Ki) was 9.85.
As to `COc1ccc2c(c1)C(=O)N(C[C@@]1(c3cc4nc(-c5cc[nH]n5)ccc4o3)NC(=O)NC1=O)C2` [Compound 2103], the pIC50 in test [1] (setting [4]) was 6.43. In test [2] (read-out: Ki), the negative logarithm of the Ki (pKi) was 9.47.
In the case of `COc1ccc2c(c1)C(=O)N(C[C@@]1(c3cc4nc(N5CCCC5)ccc4o3)NC(=O)NC1=O)C2` [Compound 2106], the pIC50 in test [1] (setting [4]) was 6.17. The pKi in test [2] (read-out: Ki) is 9.37.
